In paper PMC10134273 (Cancer Medicine, 2023):
Read-outs that look alike come from different tables or passages of the source.

Legend:
[1] = Procedure: (§1) Secondary endpoints included PK parameters (e.g., maximum observed concentration [C max] and area under the concentration‐time curve [AUC]). Secondary endpoints included objective response rate (ORR), disease control rate (DCR), and duration of response (DOR) as assessed by investigator per RECIST v1.1. Tumor responses were assessed according to RECIST v1.1; computerized tomography scanning or magnetic resonance imaging was performed every 6 weeks in the first 48 weeks, and every 12 weeks thereafter. Secondary endpoints also included safety and tolerability (adverse events [AEs] as defined by the National Cancer Institute‐Common Terminology Criteria for Adverse Events CTCAE v5.0) and exploratory biomarkers (total bile acids, 7‐α‐hydroxy‐4‐cholesten‐3‐one [C4] and circulating FGF19). Safety follow‐up visit was performed within 30 days (±5 days) and 90 days (±7 days) after the last dose of the study treatment.
All patients who received at least one dose of the study treatment in the Phase 1 part of the study were included in the safety and efficacy analyses. Dose escalation and MTD assessment were primarily based on DLTs which occurred within the 28‐day observation period. Descriptive statistics were used for demographics, safety, and efficacy data. The number of patients who experienced DLTs (within and outside of the 28‐day DLT assessment period) was tabulated for each dose level. The sample size of patients required for dose escalation were determined based on the ‘3+3’ design and DLTs observed as the trial progressed.

[2] = system: triple positive HCC tumors; conditions: cited from earlier work
[3] = system: all other kinases (including FGFR1, FGFR2, and FGFR3); conditions: versus FGFR4; cited from earlier work
[4] = DLT observation / MTD and RP2D determination (3+3 dose escalation); type: in vivo
Text: (§2) After a screening period of up to 28 days, eligible patients received treatment according to a standard “3+3” dose escalation design. […] Treatment continued until unacceptable toxicity, progressive disease, and/or at the discretion of the Investigator or patient's withdrawal of consent.

[5] = system: FGFR4 pathway; assay: Exploratory biomarkers (total bile acids, C4, circulating FGF19); type: in vivo, human
Procedure: as §1

[6] = Phase 1 plasma pharmacokinetics of EVER4010001; type: in vivo, human
Text: as §2

[7] = system: HCC or solid tumors with positive FGFR4 and KLB expression; conditions: cited from earlier work
[8] = 40 mg BID (N=3) + pembrolizumab
[9] = 60 mg BID (N=3) + pembrolizumab
[10] = 80 mg BID (N=6) + pembrolizumab
[11] = 100 mg BID (N=7) + pembrolizumab
[12] = most patients treated with 40, 60, 80, and 100 mg
[13] = Cycle 1, Day 1, 40 mg BID (N=3) + pembrolizumab
[14] = Cycle 1, Day 1, 60 mg BID (N=3) + pembrolizumab
[15] = Cycle 1, Day 1, 80 mg BID (N=6) + pembrolizumab
[16] = Cycle 1, Day 1, 100 mg BID (N=7) + pembrolizumab
[17] = Cycle 1, Day 8, 40 mg BID (N=3) + pembrolizumab
[18] = Cycle 1, Day 8, 60 mg BID (N=3) + pembrolizumab
[19] = Cycle 1, Day 8, 80 mg BID (N=6) + pembrolizumab
[20] = Cycle 1, Day 8, 100 mg BID (N=7) + pembrolizumab
[21] = CFGF401X2101 trial, Grade ≥3 TEAE

COCCNc1cc(NC(=O)N2CCCc3cc(CN4CCN(C)CC4=O)c(C=O)nc32)ncc1C#N [EVER4010001, roblitinib]
Grade 5 TEAEs related to EVER4010001 and/or pembrolizumab [1, 8]: 0 n (%) | SAEs: Death [1, 8]: 0 n (%) | Grade 5 TEAEs related to EVER4010001 and/or pembrolizumab [1, 9]: 0 n (%) | SAEs: Death [1, 9]: 1 (33.3) n (%) | Grade 5 TEAEs related to EVER4010001 and/or pembrolizumab [1, 10]: 0 n (%) | SAEs: Death [1, 10]: 0 n (%) | Grade 5 TEAEs related to EVER4010001 and/or pembrolizumab [1, 11]: 0 n (%) | SAEs: Death [1, 11]: 0 n (%) | Grade 5 TEAEs related to EVER4010001 and/or pembrolizumab ([1]; Total (N=19)): 0 n (%) | SAEs: Death ([1]; Total (N=19)): 1 (5.3) n (%) | Any TEAE: Alanine aminotransferase increased ([1]; human, in vivo): 9 (47.4) n (%) | Any TEAE: Anemia ([1]; human, in vivo): 9 (47.4) n (%) | Any TEAE: Aspartate aminotransferase increased ([1]; human, in vivo): 11 (57.9) n (%) | Any TEAE: Gastrointestinal disorders ([1]; human, in vivo): 19 n (%) | EVER4010001-related TEAEs ([1]; human, in vivo): 19 (100) n (%) | EVER4010001-related TEAEs: Increased Blood Alkaline Phosphatase ([1]; human, in vivo): 5 (26.3) n (%) | SAEs: Device dislocation ([1]; human, in vivo): 1 (5.3) n (%) | SAEs: Product issues ([1]; human, in vivo): 1 (5.3) n (%) | TEAEs leading to discontinuation: Aspartate aminotransferase increased ([1]; human, in vivo): 2 [10.5%] n (%) | TEAEs leading to discontinuation: Blood bilirubin increased ([1]; human, in vivo): 1 [5.3%] n (%) | TEAEs resulting in temporary interruption of EVER4010001 ([1]; human, in vivo): 4 [21.0%] n (%) | Any TEAE: Anemia ([1]; human, in vivo, 93.4 days): 0 n (%) | Any TEAE: Diarrhea ([1]; human, in vivo, 93.4 days): 1 (5.3) n (%) | SAEs: Gastrointestinal disorders ([1]; human, in vivo, 93.4 days): 1 (5.3) n (%) | SAEs: General disorders and administration site conditions ([1]; human, in vivo, 93.4 days): 1 (5.3) n (%) | SAEs: Pancreatitis ([1]; human, in vivo, 93.4 days): 1 (5.3) n (%) | TEAEs leading to discontinuation: Aspartate aminotransferase increased ([1]; human, in vivo, 93.4 days): 2 (10.5) n (%) | TEAEs leading to discontinuation: Blood bilirubin increased ([1]; human, in vivo, 93.4 days): 1 (5.3) n (%) | TEAEs leading to discontinuation: Investigations ([1]; human, in vivo, 93.4 days): 3 (15.8) n (%) | TEAEs leading to discontinuation: Vascular disorders ([1]; human, in vivo, 93.4 days): 1 (5.3) n (%) | TEAEs resulting in temporary interruption of EVER4010001 ([1]; human, in vivo, 93.4 days): 4 (21.0) n (%) | antitumor effect in preclinical models [2]: induced regression/stasis | selectivity against all other kinases (including FGFR1, FGFR2, and FGFR3) [3]: > 1000 fold | DLTs during whole study: Alanine aminotransferase increased ([4]; human, in vivo): 1 (5.9) n (%) | DLTs during whole study: Aspartate aminotransferase increased ([4]; human, in vivo): 2 (11.8) n (%) | Total DLTs during whole study ([4]; human, in vivo): 2 (11.8) n (%) | DLTs within 28 days: Alanine aminotransferase increased ([4]; human, in vivo, 28 days): 1 (5.9) n (%) | DLTs within 28 days: Aspartate aminotransferase increased ([4]; human, in vivo, 28 days): 2 (11.8) n (%) | Total DLTs within 28 days ([4]; human, in vivo, 28 days): 2 (11.8) n (%) | maximum tolerated dose (MTD) ([4]; in combination with pembrolizumab 200 mg Q3W): 80 mg BID | serum biomarkers (C4, total bile acid concentration, circulating FGF19) as indicator of pathway suppression ([5]; all doses): FGFR4 pathway suppression being achieved at all doses | circulating FGF19 [5, 12]: elevated | plasma C4 (7-α-hydroxy-4-cholesten-3-one) [5, 12]: elevated | total bile acid concentration [5, 12]: elevated | Geometric mean AUC0–t (geometric CV%) [6, 13]: 2363.64 (9.59) Hour·ng/ml | Mean t1/2 (SD) [6, 13]: 4.92 (0.16) Hour | Median tmax (Min, Max) [6, 13]: 0.550 (0.52, 1.05) Hour | Geometric mean AUC0–t (geometric CV%) [6, 14]: 4464.03 (37.96) Hour·ng/ml | Mean t1/2 (SD) [6, 14]: 4.00 (0.36) Hour | Median tmax (Min, Max) [6, 14]: 0.970 (0.93, 1.05) Hour | Geometric mean AUC0–t (geometric CV%) [6, 15]: 3774.38 (14.53) Hour·ng/ml | Mean t1/2 (SD) [6, 15]: 4.64 (1.44) Hour | Median tmax (Min, Max) [6, 15]: 1.030 (0.23, 2.00) Hour | Geometric mean AUC0–t (geometric CV%) [6, 16]: 5459.69 (8.34) Hour·ng/ml | Mean t1/2 (SD) [6, 16]: 4.22 (0.69) Hour | Median tmax (Min, Max) [6, 16]: 1.000 (0.52, 2.05) Hour | Geometric mean AUC0–t (geometric CV%) [6, 17]: 2084.60 (35.99) Hour·ng/ml | Mean Rac, drug accumulation ratio (SD) [6, 17]: 1.24 (0.25) | Mean t1/2 (SD) [6, 17]: 4.90 (2.59) Hour | Median tmax (Min, Max) [6, 17]: 1.030 (0.57, 2.00) Hour | Geometric mean AUC0–t (geometric CV%) [6, 18]: 3212.66 (27.61) Hour·ng/ml | Mean Rac, drug accumulation ratio (SD) [6, 18]: 1.31 (0.11) | Mean t1/2 (SD) [6, 18]: 5.78 (1.12) Hour | Median tmax (Min, Max) [6, 18]: 0.970 (0.93, 1.07) Hour | Geometric mean AUC0–t (geometric CV%) [6, 19]: 4284.35 (25.05) Hour·ng/ml | Mean Rac, drug accumulation ratio (SD) [6, 19]: 1.16 (0.08) | Mean t1/2 (SD) [6, 19]: 4.12 (0.90) Hour | Median tmax (Min, Max) [6, 19]: 0.990 (0.25, 1.05) Hour | Geometric mean AUC0–t (geometric CV%) [6, 20]: 6214.09 (24.13) Hour·ng/ml | Mean Rac, drug accumulation ratio (SD) [6, 20]: 1.23 (0.05) | Mean t1/2 (SD) [6, 20]: 4.97 (0.55) Hour | Median tmax (Min, Max) [6, 20]: 0.970 (0.50, 2.97) Hour | accumulation ratio (Rac) ([6]; Cycle 1 Day 8 vs Cycle 1 Day 1): around 1 | steady state reached ([6]; after repeated BID dosing, based on T1/2): before Cycle 1 Day 8 | Cmax ([6]; human, plasma, oral, Cycle 1, Day 1, 40 mg BID (N=3) + pembrolizumab, read-out: Geometric mean Cmax (geometric CV%)): 0.56 µg/mL | Cmax ([6]; human, plasma, oral, Cycle 1, Day 1, 60 mg BID (N=3) + pembrolizumab, read-out: Geometric mean Cmax (geometric CV%)): 0.958 µg/mL | Cmax ([6]; human, plasma, oral, Cycle 1, Day 1, 80 mg BID (N=6) + pembrolizumab, read-out: Geometric mean Cmax (geometric CV%)): 0.897 µg/mL | Cmax ([6]; human, plasma, oral, Cycle 1, Day 1, 100 mg BID (N=7) + pembrolizumab, read-out: Geometric mean Cmax (geometric CV%)): 1.34 µg/mL | Cmax ([6]; human, plasma, oral, Cycle 1, Day 8, 40 mg BID (N=3) + pembrolizumab, read-out: Geometric mean Cmax (geometric CV%)): 0.427 µg/mL | Cmax ([6]; human, plasma, oral, Cycle 1, Day 8, 60 mg BID (N=3) + pembrolizumab, read-out: Geometric mean Cmax (geometric CV%)): 0.749 µg/mL | Cmax ([6]; human, plasma, oral, Cycle 1, Day 8, 80 mg BID (N=6) + pembrolizumab, read-out: Geometric mean Cmax (geometric CV%)): 0.991 µg/mL | Cmax ([6]; human, plasma, oral, Cycle 1, Day 8, 100 mg BID (N=7) + pembrolizumab, read-out: Geometric mean Cmax (geometric CV%)): 1.33 µg/mL | AUC(0-t) ([6]; human, plasma, oral, Cycle 1 Day 1, range across dose levels, read-out: geometric mean AUC0–t): 2.36 to 5.46 µg·h/mL | Cmax ([6]; human, plasma, oral, Cycle 1 Day 1, range across dose levels, read-out: geometric mean Cmax): 0.56 to 1.34 µg/mL | AUC(0-t) ([6]; human, plasma, oral, range across 40-100 mg BID dose levels (abstract), read-out: AUC0–t): 2.37 to 5.48 µg·h/mL | Cmax ([6]; human, plasma, oral, range across 40-100 mg BID dose levels (abstract), read-out: maximum observed concentration (Cmax)): 0.606 to 1.35 µg/mL | half-life ([6]; human, plasma, oral, range across 40-100 mg BID dose levels, read-out: Mean plasma terminal half-life (T1/2)): 4 to 4.92 h | Tmax ([6]; human, plasma, oral, range across 40-100 mg BID dose levels, read-out: Median time to peak concentration (Tmax)): 0.55 to 1.03 h | increased ALT [7, 21]: 15.0% | increased AST [7, 21]: 18.8% | increased ALT ([7]; CFGF401X2101 trial, any grade): 43.8% | ORR ([7]; CFGF401X2101 trial): 8% | diarrhea suspected to be related to the study drug ([7]; CFGF401X2101 trial): 69% | recommended Phase 2 dose (RP2D) ([7]; QD doses 50-150 mg, fasted or unfasted patients): 120 mg QD | geometric mean Cmax (geometric coefficient of variation %) ([7]; RP2D 120 mg FGF401 QD, CFGF401X2101 trial): 1.12 µg/mL | recommended Phase 2 dose (RP2D) ([7]; in combination with spartalizumab 300 mg Q3W): 120 mg QD
